In paper PMC4827027, “Fungal naphtho-γ-pyrones: Potent antibiotics for drug-resistant microbial pathogens” (Scientific Reports, 2016):
≈ marks a conversion by molar mass, not a printed value.

Key:
[1] = system: MRSA (S. aureus ATCC 43300); experiment: Broth microdilution MIC, MRSA ATCC 43300; conditions: for MIC: Staphylococcus aureus, ATCC43300|MRSA, 24 h, read-out: Minimum inhibitory concentrations, S. aureus ATCC 43300
E. coli ATCC 25922 = experiment: Broth microdilution MIC, E. coli ATCC 25922; conditions: for MIC: Escherichia coli, ATCC25922, 24 h, read-out: Minimum inhibitory concentrations, E. coli ATCC 25922
E. faecalis (ATCC 29212) = experiment: Broth microdilution MIC, E. faecalis ATCC 29212; conditions: Enterococcus faecalis, ATCC29212, 24 h, read-out: Minimum inhibitory concentrations, E. faecalis ATCC 29212
E. coli FabI [2] = molecular target: T1, E. coli FabI (Escherichia coli, UniProt P0AEK4); experiment: Microscale thermophoresis (MST) binding to FabI; conditions: for Dissociation constant with E. coli FabI, Kd: MST, means ± SD for three experiments, n.i. is no clear binding detected in the MST measurement
T1 sequence (P0AEK4 whole entry): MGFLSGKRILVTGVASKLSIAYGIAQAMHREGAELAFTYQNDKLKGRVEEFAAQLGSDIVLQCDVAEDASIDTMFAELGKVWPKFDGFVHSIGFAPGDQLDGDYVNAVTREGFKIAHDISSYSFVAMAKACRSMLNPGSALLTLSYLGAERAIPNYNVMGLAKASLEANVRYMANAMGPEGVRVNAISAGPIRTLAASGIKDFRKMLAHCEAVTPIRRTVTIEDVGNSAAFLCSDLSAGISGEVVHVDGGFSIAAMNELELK

E. coli FabI [3] = molecular target: T1, E. coli FabI; experiment: FabI inhibition IC50 assay (crotonoyl-CoA/NADH); conditions: for Inhibitory activities against E. coli FabI, IC50: 50 μM crotonoyl-CoA, 100 μM NADH, n.i. is no inhibition detected (IC50 > 1 mM)
[4] = system: P. aeruginosa (ATCC 27853); experiment: Broth microdilution MIC, P. aeruginosa ATCC 27853; conditions: Pseudomonas aeruginosa, ATCC27853, 24 h, read-out: Minimum inhibitory concentrations, P. aeruginosa ATCC 27853
[5] = system: K. pneumoniae (ATCC 700603); experiment: Broth microdilution MIC, K. pneumoniae ATCC 700603; conditions: for MIC: Klebsiella pneumoniae, ATCC700603, 24 h, read-out: Minimum inhibitory concentrations, K. pneumoniae ATCC 700603
[6] = system: ESBL-producing E. coli (ATCC 35218); experiment: Broth microdilution MIC, ESBL-producing E. coli ATCC 35218; conditions: Escherichia coli, ATCC35218, 24 h, read-out: Minimum inhibitory concentrations, E. coli ATCC 35218

SMILES	MIC [1] [µg/mL]	MIC (E. coli ATCC 25922) [µg/mL]	MIC (E. faecalis (ATCC 29212)) [µg/mL]	Dissociation constant with E. coli FabI, Kd (E. coli FabI [2])	IC50 (E. coli FabI [3]) [µM]	MIC [4] [µg/mL]	MIC [5] [µg/mL]	MIC [6] [µg/mL]	Inhibitory activities against E. coli FabI, IC50 (E. coli FabI [3])	Antibacterial activity against S. aureus (in words) [1]	Antibacterial activity against E. coli (in words) (E. coli ATCC 25922)	Kd (E. coli FabI [2]) [µM]	Inhibition of K. pneumonia (in words) [5]
COc1cc(OC)c2c(O)c3c(c(-c4c(OC)cc5cc6oc(C)cc(=O)c6c(O)c5c4OC)c2c1)OC(C)(O)CC3=O (centres unmarked) [Compound 4, Fonsecinone B]	≥ 100	17 (≈ 29 µM)	≥ 100	^bn.i.	111	≥ 100	34.1 (≈ 57.9 µM)	17 (≈ 29 µM)					
COc1cc(OC)c2c(c1)cc(O)c1c(=O)cc(C)oc12 [Compound 1, Flavasperone]	≥ 100	8.52 (≈ 29.8 µM)	68.2 (≈ 238 µM)	^bn.i.	110	68.2 (≈ 238 µM)	≥ 100	8.52 (≈ 29.8 µM)					
CO/N=C(\C(=O)N[C@@H]1C(=O)N2C(C(=O)O)=C(CSc3nc(=O)c(=O)[nH]n3C)CS[C@H]12)c1csc(N)n1 [Ceftriaxone, reference compound]		2.13 (≈ 3.84 µM)				2.13 (≈ 3.84 µM)	2.13 (≈ 3.84 µM)	8.52 (≈ 15.4 µM)					
NCC[C@H](O)C(=O)N[C@@H]1C[C@H](N)[C@@H](O[C@H]2O[C@H](CN)[C@@H](O)[C@H](O)[C@H]2O)[C@H](O)[C@H]1O[C@H]1O[C@H](CO)[C@@H](O)[C@H](N)[C@H]1O [Amikacin, reference compound]		2.13 (≈ 3.64 µM)				2.13 (≈ 3.64 µM)	8.52 (≈ 14.5 µM)	4.26 (≈ 7.27 µM)					
COc1cc(OC)c2c(O)c3c(=O)cc(C)oc3cc2c1 [Compound 5, Rubrofusarin B]	≥ 100	8.52 (≈ 29.8 µM)	68.2 (≈ 238 µM)	^bn.i.		≥ 100	68.2 (≈ 238 µM)	17 (≈ 59.5 µM)	^cn.i.				
COc1cc(OC)c2c(O)c3c(c(-c4c(OC)cc5cc(O)c6c(=O)cc(C)oc6c5c4OC)c2c1)OC(C)(O)CC3=O (centres unmarked) [Compound 3, Fonsecinone C]	34.1 (≈ 57.9 µM)	2.13 (≈ 3.62 µM)	17 (≈ 29 µM)		3	17 (≈ 29 µM)	≥ 100	4.26 (≈ 7.24 µM)		moderate antibacterial activities	moderate antibacterial activities	270 ± 9.1	no obvious inhibition
COc1cc(OC)c2c(O)c3c(=O)cc(C)oc3c(-c3c(OC)cc4cc(O)c5c(=O)cc(C)oc5c4c3OC)c2c1 [Compound 2, Fonsecinone A]	34.1 (≈ 59.7 µM)	2.13 (≈ 3.73 µM)	4.26 (≈ 7.47 µM)		2.7	17 (≈ 29.9 µM)	≥ 100	4.26 (≈ 7.47 µM)		moderate antibacterial activities	moderate antibacterial activities	215 ± 28.8	no obvious inhibition
COc1cc(OC)c2c(O)c3c(=O)cc(C)oc3c(-c3c(OC)cc4cc5oc(C)cc(=O)c5c(O)c4c3OC)c2c1 [Compound 6, Aurasperone A]	34.1 (≈ 59.7 µM)	4.26 (≈ 7.47 µM)	17 (≈ 29.9 µM)		52.1	34.1 (≈ 59.7 µM)	≥ 100	8.52 (≈ 14.9 µM)				289 ± 31.1	
CN[C@H](CC(C)C)C(=O)N[C@H]1C(=O)N[C@@H](CC(N)=O)C(=O)N[C@H]2C(=O)N[C@H]3C(=O)N[C@H](C(=O)N[C@H](C(=O)O)c4cc(O)cc(O)c4-c4cc3ccc4O)[C@H](O)c3ccc(c(Cl)c3)Oc3cc2cc(c3O[C@@H]2O[C@H](CO)[C@@H](O)[C@H](O)[C@H]2O[C@H]2C[C@](C)(N)[C@H](O)[C@H](C)O2)Oc2ccc(cc2Cl)[C@H]1O [Vancomycin, reference compound]	0.53 (≈ 0.366 µM)		0.53 (≈ 0.366 µM)										
COc1cc(OC)c2c(O)c3c(=O)cc(C)oc3c(-c3c(OC)cc4cc5c(c(O)c4c3OC)C(=O)CC(C)(O)O5)c2c1 (centres unmarked) [Compound 7, Aurasperone E]	68.2 (≈ 116 µM)	8.52 (≈ 14.5 µM)	17 (≈ 29 µM)		71.8	34.1 (≈ 57.9 µM)	≥ 100	8.52 (≈ 14.5 µM)				329 ± 29.7	
COc1cc(OC)c2c(c1)c(-c1c(OC)cc3cc4oc(C)cc(=O)c4c(O)c3c1OC)c(O)c1c(=O)cc(C)oc12 [Compound 8, Asperpyrone C]	≥ 100	17 (≈ 29.9 µM)	≥ 100	^bn.i.		≥ 100	68.2 (≈ 119 µM)	17 (≈ 29.9 µM)	^cn.i.				
